Consider 16 molecules from US20240228493A1, “LRRK2 INHIBITORS AND USES THEREOF” (NEURON23, ICN., priority 2022, published 2024).

This series can be described thus: Brain penetration (Kp,uu) in CD-1 mice after single IV bolus, with plasma and brain binding by equilibrium dialysis. Type of series: in vivo. The following applies: mouse, brain and plasma (unbound brain/unbound plasma), male CD-1 mice, single IV bolus 1 mg/kg. As for the experimental part:
The compounds disclosed herein were tested on CD-1 mice for brain penetration (Kp, uu) according to the following procedures.
Nine male CD-1 mice were administered TEST COMPOUND by single intravenous bolus administration at 1 mg/kg. The vehicle used for IV study was 5% DMSO, 5% solutol, 20% PEG300 and 70% water. The detailed dosing and sampling regimens are described in the following tables.
The body weights were in the range from 28.81 to 31.25 g for males on the first dosing day. All animals received a single intravenous bolus administration of TEST COMPOUND from the tail vein.
Each blood collection (about 0.06 mL per time point) was performed from saphenous vein of each animal into pre-chilled commercial K2-EDTA tubes as anti-coagulant and placed on wet ice until centrifugation.
Brain tissue was homogenized using homogenizing buffer (15 mM PBS (pH7.4): MeOH=2:1) at the ratio of 1:9 (1 g tissue with 9 mL buffer, the dilution ratio is 10). The tissue homogenate was kept at −60° C. or lower until LC-MS/MS analysis.
The concentrations of TEST COMPOUND in plasma and brain were determined by using an LC-MS/MS method.
The plasma and brain concentration of TEST COMPOUND in study animals was subjected to a non-compartmental pharmacokinetic analysis by using the Phoenix WinNonlin software program (version 6.3 or above, Pharsight). The linear/log trapezoidal rule was applied in obtaining the PK parameters.
Mouse Kp, uu=(% free in mouse brain*concentration in mouse brain)/(% free in mouse plasma*concentration in mouse plasma)
The dialysis apparatus was assembled according to the manufacturer's instruction. Each Cell was filled with 120 μL of spiked plasma sample and dialyzed against equal volume of dialysis buffer (PBS). The assay was performed in duplicate. The dialysis plates were sealed and incubated in an incubator at 37° C. with 5% CO2 and rotated at 100 rpm for 6 hours. At the end of incubation, the seals were removed and 50 μL of samples from both buffer and plasma chambers were transferred to a 96-well plate.
The dialysis apparatus was assembled according to the manufacturer's instruction. Each Cell was filled with 150 μL of brain homogenate sample and dialyzed against equal volume of dialysis buffer (PBS). The assay was performed in duplicate. The dialysis plates were sealed and incubated in an incubator at 37° C. with 5% CO2 and rotated at 100 rpm for 6 hours. At the end of incubation, the seals were removed and 50 μL of samples from both buffer and brain homogenate chambers were transferred into separate tubes on a plate.
(In equilibrium dialysis only unbound substance equilibrates across the membrane.)
The molecule `Fc1cccc(F)c1C1=Nc2c(Cl)n[nH]c2-c2cc(N3CCOCC3)ccc2N1` (single isomer, unassigned) [Example 35, 4-(3-chloro-5-(2,6-difluorophenyl)-1,6-dihydrobenzo[d]pyrazolo[3,4-f][1,3]diazepin-9-y1)morpholine] had a Kp uu of less than 0.1.
Take `Cc1n[nH]c2c1N=C(c1c(F)cccc1F)Nc1ccc(N3CCO[C@H](C(C)(C)O)C3)cc1-2` (single isomer, unassigned) [Example 36]: the Kp uu is less than 0.1.
In the case of `Cc1n[nH]c2c1N=C(c1c(F)cccc1F)Nc1c-2cc(N2CCO[C@@H](C(C)(C)O)C2)nc1C` (single isomer, unassigned) [Example 39], the Kp uu is less than 0.1.
The result for `Cc1n[nH]c2c1N=C(c1c(F)cccc1F)Nc1cnc(N3CCS(=O)(=O)CC3)cc1-2` [Example 2, 4-[8-(2,6-difluorophenyl)-5-methyl-3,4,7,9,12-pentazatricyclo[8.4.0.02,6]tetradeca-1(10),2(6),4,7,11,13-hexaen-13-y1]-1,4-thiazinane 1,1-dioxide] reads less than 0.1; that for `Cc1n[nH]c2c1N=C(c1c(F)cccc1F)Nc1cnc(N3C[C@@H]4C[C@H]3CO4)cc1-2` [Example 6, (1S,4S)-5-[8-(2,6-difluorophenyl)-5-methyl-3,4,7,9,12-pentazatricyclo[8.4.0.02,6]tetradeca-1(10),2(6),4,7,11,13-hexaen-13-y1]-2-oxa-5-azabicyclo[2.2.1]heptane], less than 0.1.
`[2H]C1([2H])OC([2H])([2H])C([2H])([2H])N(c2cc3c(cn2)NC(c2c(F)cccc2F)=Nc2c(C)n[nH]c2-3)C1([2H])[2H]` [Example 14, 2,2,3,3,5,5,6,6-octadeuterio-4-[8-(2,6-difluorophenyl)-5-methyl-3,4,7,9,12-pentazatricyclo[8.4.0.02,6]tetradeca-1(10),2(6),4,7,11,13-hexaen-13-yl]morpholine]: the Kp uu was less than 0.1.
The result for `Cc1n[nH]c2c1N=C(c1c(F)cccc1F)Nc1cnc(N3CCC[C@@H](C#N)C3)cc1-2` [Example 18, (3R)-1-[8-(2,6-difluorophenyl)-5-methyl-3,4,7,9,12-pentazatricyclo[8.4.0.02,6]tetradeca-1(10),2(6),4,7,11,13-hexaen-13-yl]piperidine-3-carbonitrile] reads less than 0.1; that for `[2H]C1([2H])OC([2H])([2H])C([2H])([2H])N(c2cc3c(cn2)NC(c2c(F)cccc2F)=Nc2cn[nH]c2-3)C1([2H])[2H]` [Example 20, 2,2,3,3,5,5,6,6-octadeuterio-4-[8-(2,6-difluorophenyl)-3,4,7,9,12-pentazatricyclo[8.4.0.02,6]tetradeca-1(10),2(6),4,7,11,13-hexaen-13-yl]morpholine], less than 0.1.
Take `Fc1cccc(F)c1C1=Nc2c(Cl)n[nH]c2-c2cc(N3CCOCC3)ncc2N1` [Example 23, 4-(3-chloro-5-(2,6-difluorophenyl)-1,6-dihydropyrazolo[4,3-d]pyrido[4,3-f][1,3]diazepin-9-yl)morpholine]: the Kp uu is less than 0.1.
As to `C[C@H]1CN(c2cc3c(cn2)NC(c2c(F)cccc2F)=Nc2c(Cl)n[nH]c2-3)C[C@H](C)O1` [Example 26, (2S,6S)-4-(3-chloro-5-(2,6-difluorophenyl)-1,6-dihydropyrazolo[4,3-d]pyrido[4,3-f][1,3]diazepin-9-yl)-2,6-dimethylmorpholine], the Kp uu is less than 0.1.
As for `[2H]C([2H])([2H])c1n[nH]c2c1N=C(c1c(F)cccc1F)Nc1cnc(N3CCO[C@H](C)C3)cc1-2` [Example 27, (2R)-4-[8-(2,6-difluorophenyl)-5-(trideuteriomethyl)-3,4,7,9,12-pentazatricyclo[8.4.0.02,6]tetradeca-1(10),2(6),4,7,11,13-hexaen-13-y1]-2-methyl-morpholine], the Kp uu is less than 0.1.
The result for `Cc1n[nH]c2c1N=C(c1c(F)cccc1F)Nc1cnc(-c3cnn(CC(F)F)c3)cc1-2` [Example 28, 13-[1-(2,2-difluoroethyl)pyrazol-4-y1]-8-(2,6-difluorophenyl)-5-methyl-3,4,7,9,12-pentazatricyclo[8.4.0.02,6]tetradeca-1(10),2(6),4,7,11,13-hexaene] reads not below 0.1; that for `Fc1cccc(F)c1C1=Nc2cn[nH]c2-c2cc(N3CCOCC3)ncc2N1` [Example 33, 4-[8-(2,6-difluorophenyl)-3,4,7,9,12-pentazatricyclo[8.4.0.02,6]tetradeca-1(10),2(6),4,7,11,13-hexaen-13-yl]morpholine], less than 0.1.
To `Cc1n[nH]c2c1N=C(c1c(F)cccc1F)Nc1c-2cc(N2CCO[C@@H](CO)C2)nc1C` [Example 37, (R)-(4-(5-(2,6-difluorophenyl)-3,7-dimethyl-1,6-dihydropyrazolo[4,3-d]pyrido[4,3-f][1,3]diazepin-9-yl)morpholin-2-y1)methanol] belongs less than 0.1; to `Cc1n[nH]c2c1N=C(c1c(F)cccc1F)Nc1c-2cc(N2CCC(C)(O)CC2)nc1C` [Example 41, 1-(5-(2,6-difluorophenyl)-3,7-dimethyl-1,6-dihydropyrazolo[4,3-d]pyrido[4,3-f][1,3]diazepin-9-yl)-4-methylpiperidin-4-ol], less than 0.1.
The molecule `Cn1cc(-c2cc3c(cn2)NC(c2c(F)cccc2F)=Nc2c(Cl)n[nH]c2-3)cn1` [Example 54, 3-chloro-5-(2,6-difluorophenyl)-9-(1-methyl-1H-pyrazol-4-yl)-1,6-dihydropyrazolo[4,3-d]pyrido[4,3-f][1,3]diazepine] returned a Kp uu of less than 0.1.
